Results reported in US8394355B2, “Use of UTP for the diagnosis of stenoses and other conditions of restricted blood flow” (P2 science Aps, priority 2009, dated 2013).
Where “and” joins values, the source holds several entries; their conditions need not be identical. Equal entries are not always repeated. Entries after “also recorded” stand apart in the source; their conditions may differ.

Columns and labels:
[1] = system: coronary arteries in humans with coronary artery disease; test: FFR during continuous intracoronary infusion via microcatheter (Example 3); format: in vivo; settings: for % of patients with FFR ≦ 0.8 / adverse effects during IC continuous infusion: microcatheter study; for adverse effects during IC continuous infusion: 10 patients; for optimal dose for achieving maximal coronary hyperemia and thereby the lowest FFR: FIG. 5
Description: As described previously, inducing stable maximal coronary hyperemia is essential for measurement of fractional flow reserve (FFR). This second experiment in a similar patient group evaluated the differential efficacy of intracoronary (IC) continuous adenosine infusion vs. IC continuous uridine triphosphate (UTP) infusion via a microcatheter for inducing steady state maximal coronary hyperemia. The present study was designed to evaluate the safety and effectiveness of the equimolar concentrations of UTP vs. adenosine infusion for use in the FFR method. Time to achievement of steady-state, impact of maximal hyperemia (lowest FFR) for the different compounds and side effects were recorded in 10 patients with intermediate coronary lesions. FFR was measured consecutively by IC continuous adenosine or UTP infusion using a microcatheter to bypass the proximal pressure transducer. The IC microcatheter (Progreat Microcatheter System, Terumo, Japan) used was positioned at the coronary ostium, and FFR was then measured by increasing IC continuous adenosine or UTP infusion rates in equimolar concentrations from 10 to 400 μg/min via the microcatheter.
After femoral catheterization, coronary angiography was performed with the standard femoral approach. Heparin was administered according to standard procedures.
Intracoronary nitroglycerin (0.2-0.3 mg) was administered before the control angiograms were made in the microcatheter study. Heart rate and arterial pressure were continuously monitored throughout the procedure. After a guiding catheter (5F catheter, Cordis Corp.) without side holes was positioned at the coronary ostium, coronary angiograms were obtained from multiple projections. Quantitative coronary analysis was performed by using an independent analyzer blinded to the results of FFR using a computer-assisted, automated computerized edge-detection algorithm (Siemens Medical System). The external diameter of the contrast-filled catheter was used as a calibration standard. Minimal luminal diameter, vessel diameter of the reference segment, and the percent diameter stenosis at end diastole were measured from the worst-view trace. After coronary angiography, a 0.014-in. pressure wire (Combowire, Volcano Corporation, US) was advanced distally to the stenosis through a 6F guiding catheter. In the microcatheter study, an IC bolus injection of nitroglycerin (0.2-0.3 mg) was given before advancing the pressure wire through the stenosis in order to avoid any mechanically-induced coronary vasoconstriction. The pressure wire was externally calibrated and then advanced to the distal tip of the catheter. It was verified whether equal pressure was recorded at both the catheter and the pressure wire. The pressure wire was advanced through the coronary catheter, introduced into the coronary artery, and positioned distal to the stenosis.
Distal coronary pressure (Pd) and proximal coronary pressure (Pa) were measured at baseline and at maximal hyperemia (adenosine vs. UTP) simultaneously. Fractional flow reserve was calculated by dividing mean Pd by mean Pa during maximal hyperemia. The time to optimal vasodilatation (time needed to reach >90% of the minimal value of Pd/Pa after administration of the adenosine or UTP) was computed in order to assess whether procedure time was prolonged. The hyperemic stimuli were given as follows: an IC continuous infusion of adenosine or UTP in incremental doses of 10, 20, 40, 80, 160, 240, […] and 400 μg/min, in both the left and right coronary artery depending upon lesion anatomy. The dosages were increased stepwise by IC continuous infusion with the microcatheter where the stepwise dose increase was recorded continuously without breaks. After each stepwise increase, FFR and CFR were recorded automatically. The next hyperemic stimulus UTP vs adenosine was given when Pa, Pd, and heart rate returned to their baseline values.

[2] = system: leg blood flow; settings: cited from earlier work; for relative vasoactive potency (rank order): only for blood flows around 3.5 Lmin^−1

Compound | FFR Mean ([1]; mean of patients, 10 μg/min) | FFR Mean ([1]; mean, 20 μg/min) | FFR Mean ([1]; mean, 40 μg/min) | FFR Mean ([1]; mean, 80 μg/min) | FFR Mean ([1]; mean, 160 μg/min) | FFR Mean ([1]; mean, 240 μg/min) | FFR Mean ([1]; mean, 320 μg/min) | FFR Mean ([1]; mean, 400 μg/min) | % of patients with FFR ≦ 0.8 ([1]; 80 μg/min (n = 8)) | % of patients with FFR ≦ 0.8 ([1]; 160 μg/min (n = 6)) | % of patients with FFR ≦ 0.8 ([1]; 320 μg/min (n = 9)) | % of patients with FFR ≦ 0.8 ([1]; 400 μg/min (n = 3)) | adverse effects during IC continuous infusion [1] | optimal dose for achieving maximal coronary hyperemia and thereby the lowest FFR ([1]; microcatheter) | relative vasoactive potency (rank order) [2] | other results
Nc1ncnc2c1ncn2[C@@H]1O[C@H](CO)[C@@H](O)[C@H]1O [adenosine] | 0.90 | 0.88 | 0.86 | 0.84 | 0.82 | 0.81 | 0.82 | 0.82 | 37 % of patients | 33 % of patients | 44 % of patients | 33 % of patients | nearly all felt angina in the adenosine group; also recorded: some patients had a transient second degree A-V block; also recorded: nearly all patients experienced side effects | ~240 µg/min | 5.8 | FFR ([1]; individual patients (row = patient no.), IC continuous infusion 10 μg/min, microcatheter, listed as ADO): 0.81 and 0.94 and 0.86 and 0.99; FFR ([1]; individual patients, 20 μg/min, listed as ADO): 0.75 and 0.94 and 0.95; FFR ([1]; individual patients, 40 μg/min, listed as ADO): 0.73 and 0.94 (2×) and 0.82; FFR ([1]; individual patients, 80 μg/min, listed as ADO): 0.83 and 0.95 and 0.76 and 0.71 and 0.94 and 0.82 and 0.88; FFR ([1]; individual patients, 160 μg/min, listed as ADO): 0.80 and 0.95 (2×) and 0.60 and 0.68 and 0.85 and 0.96 and 0.75; FFR ([1]; individual patients, 240 μg/min, listed as ADO): 0.81 and 0.94 and 0.60 and 0.87 and 0.91 and 0.71; FFR ([1]; individual patients, 400 μg/min, listed as ADO): 0.56 and 1.01 and 0.89
O=c1ccn([C@@H]2O[C@H](COP(=O)(O)OP(=O)(O)OP(=O)(O)O)C(O)[C@@H]2O)c(=O)[nH]1 (stereo partly drawn) [UTP, Uridine 5-triphosphate] | 0.84 | 0.83 | 0.83 | 0.78 | 0.79 | 0.79 | 0.79 | 0.79 | 62 % of patients | 50 % of patients | 44 % of patients | 33 % of patients | None of the patients had chest pain in the UTP group; also recorded: All patients tolerated UTP without side effects | approximately 80 μg/min | 100 | FFR in comparison to IC adenosine infusion ([1]; P<0.05): significantly lower; steady-stable hyperemia lasted longer compared to adenosine infusion ([1]; in vivo): ~20 s; FFR ([1]; individual patients (row = patient no.), IC continuous infusion 10 μg/min, microcatheter): 0.72 and 0.95 and 0.84; FFR ([1]; individual patients, 20 μg/min): 0.71 and 0.95; FFR ([1]; individual patients, 40 μg/min): 0.72 and 0.95 and 0.83; FFR ([1]; individual patients, 80 μg/min): 0.73 and 0.79 and 0.88 and 0.56 and 0.71 and 0.97 and 0.83; FFR ([1]; individual patients, 160 μg/min): 0.90 and 0.73 and 0.79 and 0.86 and 0.56 and 0.71 and 0.92 and 0.83; FFR ([1]; individual patients, 240 μg/min): 0.89 (2×) and 0.73 and 0.79 and 0.87 and 0.55; FFR ([1]; individual patients, 400 μg/min): 0.90 and 0.92 and 0.56; induction time to optimal coronary hyperemia ([1]; versus IC continuous adenosine infusion): shorter; blood flow increase, % of maximum in the leg during hard exercise ([2]; local infusion): 60%
